Data: patent publication US20150218141A1, “SUBSTITUTED CARBAMATE COMPOUNDS” (HOFFMANN-LA ROCHE INC, priority 2012, published 2015)
Counter-ions that a name gives are not always drawn.

Target: T1, hTRPA1 (Homo sapiens, UniProt O75762)
T1 construct: host or cells: CHO-K1 Tet-On, Clone 20 (Chinese Hamster Ovary cells, inducible expression)
Assay: IC50 determination, dose response calcium flux (FLIPR) assay, ChanTest hTRPA1-CHO stably transfected cell line
Assay type: cell-based
Settings: CHO-K1 Tet-On hTRPA1 cells, 30' preincubation, agonist cinnamaldehyde final 100 uM
Protocol: IC50 Determination of Exemplified Compounds Dose Response Assay: ChanTest hTRPA1-CHO Stably Transfected Cell Line
CHO-K1 Tet-On_HOMSA_TRPA1_Clone—20
Growth Media for CHO-K1 Tet-On_HOMSA_TRPA1_Clone—20 • Ham's F-12 with 10% tetracycline-free FBS • 1× penicillin-streptomycin • 1× glutamax • 0.01 mg/ml Blasticidin • 0.40 mg/ml Zeocin • The cell line doubling rate was ˜15 hours. […] Experiments were run at 24 hours post induction.
Plating Conditions CHOK1/TRPA1 Cells: • Harvested cells with 0.025% trypsin/EDTA. • Resuspended cells in growth media without selection antibiotics. • Measured cell density and diluted to 2.4×10^5 cells/ml in media containing 1 ug/ml Doxycycline Plate 25 ul/well into 384 well black/clear tissue culture-treated plates. • Incubated overnight at 37° C.
Reagents: • Replacement Buffer: Hank's Balanced Salt Solution, 20 mM HEPES along with 0.005% BSA and 2× Probenecid • Dye Loading Buffer: Cal-3 NW Calcium dye was prepared by dissolving the contents of one vial with […] Hank's Balanced Salt Solution containing 20 mM HEPES. • Control compounds for CHOK1/TRPA1 cells: AP-18, stock 10 mM, prepare 3.5× compound dilution in a Compound Buffer (HBSS/20 mM HEPES/0.005% BSA)—final concentration 10 uM.
Preparation of Cinnamaldehyde (Agonist Addition):
• Specific gravity=1.046 gm/cc • 1.32 gm/1.046 gm/cc=1.26 ml of stock • Add 1.74 ml DMSO=3.3 M stock • Working solution 4.5× (final 100 uM in Compound Buffer: HBSS/20 mM HEPES/0.005% BSA)
Compounds dilutions were prepared from 5 or 10 mM stock (100% DMSO): • Adjustments of volumes and concentrations were made at time of titration to reflect desired final assay concentrations. • Compounds were tested at either 20 μM three folds dilution 11 steps out or 30 μM two folds dilution 11 steps out. • 3 μl of diluted compound were transferred into Weidmann 384-well plate in duplicates side-by-side.
Compound plates were resuspended with 100 ul of HBSS/20 mM HEPES/0.005% BSA buffer (Compound Buffer):
Growth media was removed from the cell plates (20 ul) and 20 ul of the Replacement Buffer was added followed by addition of 25 ul of diluted dye. All three steps were performed using a Plate Washer BioTek 407. The plates were then incubated for 30′ at RT.
After incubation, both the cell and compound plates were brought to the FLIPR and 20 ul of the diluted compounds/antagonist/bk were transferred to the cell plates by the FLIPR. Plates were then incubated for 30′ at room temperature. After 30′ incubation, plates were returned to the FLIPR and 20 ul of 4.5× Cinnamaldehyde was added to the cell plates. During the compound addition as well as agonist addition, fluorescence readings were taken simultaneously from all 384 wells of the cell plate every 1.5 seconds. Five readings were taken to establish a stable baseline, then 20 ul of sample was rapidly (30 ul/sec) and simultaneously added to each well of the cell plate. The fluorescence was continuously monitored before, during and after sample/agonist addition for a total elapsed time of 100 seconds (compound addition) and 120 seconds (agonist addition). Responses (increase in peak fluorescence) in each well following agonist addition was determined. The initial fluorescence reading from each well, prior to ligand stimulation, was used a zero baseline value for the data from that well.

T1 sequence (O75762 whole entry): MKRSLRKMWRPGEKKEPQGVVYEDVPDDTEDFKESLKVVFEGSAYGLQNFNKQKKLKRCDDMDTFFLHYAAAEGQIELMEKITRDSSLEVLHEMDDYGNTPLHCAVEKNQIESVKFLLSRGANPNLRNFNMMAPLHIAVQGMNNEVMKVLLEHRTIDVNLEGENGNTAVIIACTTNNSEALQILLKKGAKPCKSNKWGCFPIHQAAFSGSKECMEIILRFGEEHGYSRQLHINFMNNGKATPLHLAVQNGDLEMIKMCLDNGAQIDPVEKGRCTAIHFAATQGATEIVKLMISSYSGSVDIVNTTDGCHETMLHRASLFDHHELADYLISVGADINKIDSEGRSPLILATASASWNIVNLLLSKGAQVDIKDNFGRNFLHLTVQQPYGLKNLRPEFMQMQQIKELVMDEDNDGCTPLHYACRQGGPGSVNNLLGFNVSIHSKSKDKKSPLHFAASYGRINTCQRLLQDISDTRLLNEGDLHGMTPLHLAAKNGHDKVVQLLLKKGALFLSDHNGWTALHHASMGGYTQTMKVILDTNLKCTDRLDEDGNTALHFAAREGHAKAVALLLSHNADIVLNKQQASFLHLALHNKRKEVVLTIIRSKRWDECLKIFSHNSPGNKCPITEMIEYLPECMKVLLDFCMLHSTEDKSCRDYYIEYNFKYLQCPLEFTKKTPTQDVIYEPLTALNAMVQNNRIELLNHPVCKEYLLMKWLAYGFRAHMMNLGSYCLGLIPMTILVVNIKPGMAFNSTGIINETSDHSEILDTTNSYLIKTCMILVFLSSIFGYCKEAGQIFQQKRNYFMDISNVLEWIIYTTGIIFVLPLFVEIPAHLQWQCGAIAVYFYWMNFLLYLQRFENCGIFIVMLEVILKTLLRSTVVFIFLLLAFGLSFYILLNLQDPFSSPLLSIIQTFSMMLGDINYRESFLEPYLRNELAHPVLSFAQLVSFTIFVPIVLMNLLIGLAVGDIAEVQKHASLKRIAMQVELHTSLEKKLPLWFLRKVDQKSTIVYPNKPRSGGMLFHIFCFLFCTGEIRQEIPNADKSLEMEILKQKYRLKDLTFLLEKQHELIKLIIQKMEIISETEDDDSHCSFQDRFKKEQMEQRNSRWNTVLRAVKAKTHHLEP

| IC50 [nM] | SMILES |
| --- | --- |
| 203 | COc1cc(OC)cc(C2CCCN(C[C@H](OC(=O)Nc3ccc(Cl)cc3)C(F)(F)F)C2)c1 (stereo partly drawn) [Example 21, (4-Chlorophenyl)-carbamic acid (S)-1-[3-(3,5-dimethoxyphenyl)-piperidin-1-ylmethyl]-2,2,2-trifluoroethyl ester] |
| 21.5 | O=C(Nc1ccc(Cl)cc1)O[C@@H](CN1CCC[C@H](c2cc(C(F)(F)F)cc(C(F)(F)F)c2)C1)C(F)(F)F [Example 23, (4-Chlorophenyl)-carbamic acid (S)-1-[(R)-3-(3,5-bis-trifluoromethylphenyl)-piperidin-1ylmethyl]-2,2,2-trifluoroethyl ester] |
| 2260 | O=C(Nc1ccc(Cl)cc1)OC(CN1CCCC(c2ccccc2)CC1)C(F)(F)F (centres unmarked) [Example 27, (4-Chlorophenyl)-carbamic acid 2,2,2-trifluoro-1-(4-phenyl-azepan-1-ylmethyl)-ethyl ester] |
| 35.4 | O=C(Nc1ccc(Cl)cc1)O[C@@H](CN1CCCC(c2cccc(C(F)(F)F)c2)C1)C(F)(F)F (stereo partly drawn) [Example 29, (4-Chlorophenyl)-carbamic acid (S)-2,2,2-trifluoro-1-[3-(3-trifluoromethylphenyl)-piperidin-1-ylmethyl]-ethyl ester hydrochloride] |
| 168 | COc1cc(C2CCCN(C[C@H](OC(=O)Nc3ccc(Cl)cc3)C(F)(F)F)C2)ccc1F (stereo partly drawn) [Example 31, (4-Chlorophenyl)-carbamic acid (S)-2,2,2-trifluoro-1-[3-(4-fluoro-3-methoxyphenyl)-piperidin-1-ylmethyl]-ethyl ester hydrochloride] |
| 113 | COc1cc([C@H]2CCCN(C[C@H](OC(=O)Nc3ccc(Cl)cc3)C(F)(F)F)C2)ccc1F [Example 32, (4-Chloro-phenyl)-carbamic acid (S)-2,2,2-trifluoro-1-[(R)-3-(4-fluoro-3-methoxy-phenyl)-piperidin-1-ylmethyl]-ethyl ester hydrochloride] |
| 78.3 | O=C(Nc1ccc(Cl)cc1)O[C@@H](CN1CCC(F)(F)CC1)C(F)(F)F [Example 33, (4-Chlorophenyl)-carbamic acid (S)-1-(4,4-difluoropiperidin-1-ylmethyl)-2,2,2-trifluoroethyl ester hydrochloride] |
| 339 | COCCOc1cc(C2CCCN(C[C@H](OC(=O)Nc3ccc(Cl)cc3)C(F)(F)F)C2)ccc1F (stereo partly drawn) [Example 34, (4-Chlorophenyl)-carbamic acid (S)-2,2,2-trifluoro-1-{3-[4-fluoro-3-(2-methoxyethoxy)-phenyl]-piperidin-1-ylmethyl}-ethyl ester] |
| 334 | COCCOc1cc([C@H]2CCCN(C[C@H](OC(=O)Nc3ccc(Cl)cc3)C(F)(F)F)C2)ccc1F [Example 35, (4-Chlorophenyl)-carbamic acid (S)-2,2,2-trifluoro-1-{(R)-3-[4-fluoro-3-(2-methoxyethoxy)-phenyl]-piperidin-1-ylmethyl}-ethyl ester hydrochloride] |
| 625 | O=C(Nc1ccc(Cl)cc1)OC(CN1CCCC(c2ccccc2)C1)C(F)(F)F (centres unmarked) [Example 36, (4-Chlorophenyl)-carbamic acid 2,2,2-trifluoro-1-(3-phenylpiperidin-1-ylmethyl)-ethyl ester hydrochloride] |
| 522 | O=C(Nc1ccc(Cl)cc1)OC(CN1CCCC(c2ccc(Cl)cc2)C1)C(F)(F)F (centres unmarked) [Example 37, (4-Chlorophenyl)-carbamic acid 1-[3-(4-chlorophenyl)-piperidin-1-ylmethyl]-2,2,2-trifluoro ethyl ester] |
| 622 | COc1ccc(C2CCCN(C[C@H](OC(=O)Nc3ccc(Cl)cc3)C(F)(F)F)C2)cc1 (stereo partly drawn) [Example 38, (4-Chlorophenyl)-carbamic acid (S)-2,2,2-trifluoro-1-[3-(4-methoxyphenyl)-piperidin-1-ylmethyl]-ethyl ester] |
| 865 | O=C(Nc1ccc(Cl)cc1)O[C@@H](CN1CCCC(C(=O)c2ccccc2)C1)C(F)(F)F (stereo partly drawn) [Example 39, (4-Chlorophenyl)-carbamic acid (S)-1-(3-benzoylpiperidin-1-ylmethyl)-2,2,2-trifluoroethyl ester hydrochloride] |
| 191 | O=C(Nc1ccc(Cl)cc1)O[C@@H](CN1CCCC(Oc2ccccc2)C1)C(F)(F)F (stereo partly drawn) [Example 40, (4-Chlorophenyl)-carbamic acid (S)-2,2,2-trifluoro-1-(3-phenoxypiperidin-1-ylmethyl)-ethyl ester hydrochloride] |
| 320 | O=C(Nc1ccc(Cl)cc1)O[C@@H](CN1CCCC(c2cccc(F)c2)C1)C(F)(F)F (stereo partly drawn) [Example 41, (4-Chlorophenyl)-carbamic acid (S)-2,2,2-trifluoro-1-[3-(3-fluorophenyl)-piperidin-1-ylmethyl]-ethyl ester hydrochloride] |
| 444 | O=C(Nc1ccc(Cl)cc1)O[C@@H](CN1CCCC(c2ccc(F)cc2)C1)C(F)(F)F (stereo partly drawn) [Example 42, (4-Chlorophenyl)-carbamic acid (S)-2,2,2-trifluoro-1-[3-(4-fluorophenyl)-piperidin-1-ylmethyl]-ethyl ester hydrochloride] |
| 298 | CCOc1cccc(C2CCCN(C[C@H](OC(=O)Nc3ccc(Cl)cc3)C(F)(F)F)C2)c1 (stereo partly drawn) [Example 43, (4-Chlorophenyl)-carbamic acid (S)-1-[3-(3-ethoxyphenyl)-piperidin-1-ylmethyl]-2,2,2-trifluoroethyl ester hydrochloride] |
| 172 | O=C(Nc1ccc(Cl)cc1)O[C@@H](CN1CCCC(Sc2ccccc2)C1)C(F)(F)F (stereo partly drawn) [Example 44, (4-Chlorophenyl)-carbamic acid (S)-2,2,2-trifluoro-1-(3-phenylsulfanyl-piperidin-1-ylmethyl)-ethyl ester hydrochloride] |
| 139 | O=C(Nc1ccc(Cl)cc1)O[C@@H](CN1CCCC(Oc2ccc(Cl)cc2)C1)C(F)(F)F (stereo partly drawn) [Example 45, (4-Chlorophenyl)-carbamic acid (S)-1-[3-(4-chlorophenoxy)-piperidin-1-ylmethyl]-2,2,2-trifluoroethyl ester hydrochloride] |
| 411 | N#Cc1ccc(OC2CCCN(C[C@H](OC(=O)Nc3ccc(Cl)cc3)C(F)(F)F)C2)cc1 (stereo partly drawn) [Example 46, (4-Chlorophenyl)-carbamic acid (S)-1-[3-(4-cyanophenoxy)-piperidin-1-ylmethyl]-2,2,2-trifluoroethyl ester hydrochloride] |
| 219 | N#Cc1cccc(OC2CCCN(C[C@H](OC(=O)Nc3ccc(Cl)cc3)C(F)(F)F)C2)c1 (stereo partly drawn) [Example 47, (4-Chlorophenyl)-carbamic acid (S)-1-[3-(3-cyanophenoxy)-piperidin-1-ylmethyl]-2,2,2-trifluoroethyl ester hydrochloride] |
| 147 | O=C(Nc1ccc(Cl)cc1)O[C@@H](CN1CCCC(Oc2ccc(F)cc2)C1)C(F)(F)F (stereo partly drawn) [Example 48, (4-Chlorophenyl)-carbamic acid (S)-1-[3-(4-fluorophenoxy)-piperidin-1-ylmethyl]-2,2,2-trifluoroethyl ester hydrochloride] |
| 408 | COc1cccc(OC2CCCN(C[C@H](OC(=O)Nc3ccc(Cl)cc3)C(F)(F)F)C2)c1 (stereo partly drawn) [Example 49, (4-Chlorophenyl)-carbamic acid (S)-1-[3-(3-methoxyphenoxy)-piperidin-1-ylmethyl]-2,2,2-trifluoroethyl ester hydrochloride] |
